Entries after “also recorded” stand apart in the source; their conditions may differ.
Assays:
[1] = system: diabetic pig; experiment: Histopathology of infusion sites (inflammation at catheter tip and body); format: in vivo; conditions: listed as Humalog™
Source text: FIG. 2A is a series of histologic evaluations at the catheter tip showing the inflammatory response (score), and size of the area with tissue reaction. “*” indicates the catheter location and “F” indicates normal fat. […] FIG. 2B is a series of graphs illustrating the inflammation at the catheter tip for diabetic and non-diabetic pigs. Localized inflammation loosely correlated with site-loss.
FIG. 2C is a series of graphs illustrating the predominate inflammation cells at the catheter tip and catheter body (qualitative). To isolate the main inflammation contributors, a catheter, a catheter infused with insulin (Humalog™), and a catheter infused with placebo were placed on a diabetic pig at the same time.
FIG. 2D is a series of graphs illustrating the predominate inflammation cells at the catheter tip and catheter body of an insulin injection port (i-Port™). To isolate the main inflammation contributors, a catheter, a catheter infused with insulin, and a catheter infused with placebo were placed on a diabetic pig. Compared to continuous infusion, the giant cells are missing in the i-Port™ study. […] As observed by the pathologist, the pigs may have developed a hypersensitivity to the Humalog™ and such a reaction would contribute to the inflammation seen (the degree that hypersensitivity is influencing the inflammation is unclear but it could be one of the main drivers).

[2] = system: normal and diabetic Yucatan pigs; experiment: PK/PD study: blood glucose response to Humalog; format: in vivo, Yucatan pig
Source text: Factors influencing insulin pK/pD properties include inflammation, infection, immune response, wound healing cascade, age of patients, type of insulin used, site of insertion, layer of scar tissue where the catheter tip resides, and several others. 6 Yucatan pigs were used in this study: 2 normal and 4 diabetic pigs, as shown in […]

[3] = system: diabetic porcine model; experiment: Site-loss evaluation of insulin infusion sets in diabetic porcine model (blood glucose >350 mg/dl not corrected by insulin); format: in vivo, pig; conditions: for site-loss performance versus the control: agent formulated with insulin (Humalog)
Protocol: The objectives of this study include duplicating the site-loss phenomena observed in previous studies using a diabetic porcine model. Additionally, various infusion set configurations are evaluated for reducing site-loss and extending infusion set wear. Further, site-loss is mitigated using a response-inhibiting agent and/or infusion pump to increase reliability of wear for 3 days and extend infusion set wear beyond 3 days.
The objectives of this study include: duplicating the site-loss phenomena observed in previous studies using the diabetic porcine model; using the established diabetic porcine model to evaluate the effects of various infusion set designs on infusion site-loss; and testing if site-loss can be mitigated by direct pump infusing of immunosuppressant/anti-inflammatory drugs, and/or by modifying infusion set by drug coating.
This study is designed so that each set (inserted under anesthesia) is to be worn for 1 week unless there was set failure/dislodge. Glucose is monitored by a blood glucose meter and Enlite™ sensor. The criteria for determining site loss is that blood glucose is greater than 350 mg/dl and fails to decrease following an insulin dose correction. During biopsy pumps are removed but the cannula is maintained in-situ. Site skin is examined for edema/erythema (swell/redness) (see FIG. 8).

[4] = Assay of rapamycin/Humalog solution after use; format: physicochemical; conditions: 20 μg/mL solution assayed after use

In the case of Insulin lispro, the “order of evaluated inflammation scores” value ([1]; catheter, catheter infused with insulin, catheter infused with placebo on a diabetic pig) is reported as “insulin≥placebo≥catheter; also recorded: insulin≥placebo≥cannula”, the “localized inflammation / tissue fibrosis” value ([1]; compared to catheter and placebo) is reported as “associated with increased localized inflammation; also recorded: main contributor to localized tissue fibrosis” and the “blood glucose level lowering” value [2] is reported as “effectively lower blood glucose level”.

For Dextran Sulfate Sodium Salt, the “site-loss performance versus the control” value [3] was “significantly better than the control”.

With `CO[C@H]1C[C@@H]2CC[C@@H](C)[C@@](O)(O2)C(=O)C(=O)N2CCCC[C@H]2C(=O)O[C@H]([C@H](C)C[C@@H]2CC[C@@H](O)[C@H](OC)C2)CC(=O)[C@H](C)/C=C(\C)[C@@H](O)[C@@H](OC)C(=O)[C@H](C)C[C@H](C)/C=C/C=C/C=C/1C` [Rapamycin] the “stability of rapamycin in U100 Humalog solution” value [4] was “*Rapamycin was later found to be degraded by assaying solution after use”, the “recovery of infusion site after” value ([3]; dosed with Humalog) was “around 6 days” and the “duration of wear before site-loss” value ([3]; formulation of insulin (Humalog) with agent, Sof-Set) was 5 days.

With `C[C@H]1C[C@H]2[C@@H]3CCC4=CC(=O)C=C[C@]4(C)[C@@]3(F)[C@@H](O)C[C@]2(C)[C@@]1(O)C(=O)COP(=O)([O-])[O-].[Na+].[Na+]` [BSP, betamethasone sodium phosphate] the “site-loss performance versus the control” value [3] was “significantly worse than the control”.

For `C[C@@H]1C[C@H]2[C@@H]3CCC4=CC(=O)C=C[C@]4(C)[C@@]3(F)[C@@H](O)C[C@]2(C)[C@@]1(O)C(=O)COP(=O)(O)O` [DXP, Dexamethasone Phosphate], the “site-loss performance versus the control” value [3] was “significantly worse than the control”.

In the case of heparin sodium, the “no site-loss occurred in” value ([3]; U100 Humalog with heparin sodium 3.55 mg/mL (685 U/mL), continuous infusion, pigs IM3 and IM4, control IM1 site-loss in 2 days) is reported as over 6 days and the “site-loss performance versus the control” value [3] is reported as “significantly better than the control”.
